Data published in the supplement of paper PMC10307832.

What was measured:
Assay in all cases: relative viability (nuclei count vs DMSO), 5 days (fraction); higher = more cells survive
Trametinib + Pemetrexed = compound: CC(=O)Nc1cccc(-n2c(=O)n(C3CC3)c(=O)c3c(Nc4ccc(I)cc4F)n(C)c(=O)c(C)c32)c1 [Trametinib] + Nc1nc2[nH]cc(CCc3ccc(C(=O)N[C@@H](CCC(=O)O)C(=O)O)cc3)c2c(=O)[nH]1 [Pemetrexed] (partner 0.2 µM)
In short: (§1)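 Values are medians from duplicate plates. Each reflects relative viability, defined as the nuclei count of treated wells over that of vehicle wells. Lung cancer cell lines in 1536-well plates were pin-tool dosed one day after seeding with one drug alone or with a fixed anchor-drug dose plus five library-drug doses (not always all listed) in √10 steps, then fixed, stained and imaged at 4× after 5 days.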

[1] = compound: CN1C=C(C2=CC=CC=C21)/C=C\3/C4=C(C=CC=N4)NC3=O + CCNC(=O)c1noc(-c2cc(C(C)C)c(O)cc2O)c1-c1ccc(CN2CCOCC2)cc1 [Luminespib] (partner 0.01 µM)
In short: as §1

Trametinib + Vorinostat = compound: CC(=O)Nc1cccc(-n2c(=O)n(C3CC3)c(=O)c3c(Nc4ccc(I)cc4F)n(C)c(=O)c(C)c32)c1 [Trametinib] + O=C(CCCCCCC(=O)Nc1ccccc1)NO [Vorinostat] (partner 1 µM)
In short: as §1

Trametinib + Pictilisib = compound: CC(=O)Nc1cccc(-n2c(=O)n(C3CC3)c(=O)c3c(Nc4ccc(I)cc4F)n(C)c(=O)c(C)c32)c1 [Trametinib] + CS(=O)(=O)N1CCN(Cc2cc3nc(-c4cccc5[nH]ncc45)nc(N4CCOCC4)c3s2)CC1 [Pictilisib] (partner 1 µM)
In short: as §1

| Cell Line | relative viability (Trametinib + Pemetrexed; first compound 0.0025 µM) | relative viability (Trametinib + Pemetrexed; first compound 0.007906 µM) | relative viability (Trametinib + Pemetrexed; first compound 0.025 µM) | relative viability (Trametinib + Pemetrexed; first compound 0.07906 µM) | relative viability (Trametinib + Pemetrexed; first compound 0.25 µM) | relative viability ([1]; first compound 0.02 µM) | relative viability ([1]; first compound 0.06325 µM) | relative viability ([1]; first compound 0.2 µM) | relative viability ([1]; first compound 0.6325 µM) | relative viability ([1]; first compound 2 µM) | relative viability (Trametinib + Vorinostat; first compound 0.0025 µM) | relative viability (Trametinib + Vorinostat; first compound 0.007906 µM) | relative viability (Trametinib + Vorinostat; first compound 0.025 µM) | relative viability (Trametinib + Vorinostat; first compound 0.07906 µM) | relative viability (Trametinib + Vorinostat; first compound 0.25 µM) | relative viability (Trametinib + Pictilisib; first compound 0.0025 µM) | relative viability (Trametinib + Pictilisib; first compound 0.007906 µM) | relative viability (Trametinib + Pictilisib; first compound 0.025 µM) | relative viability (Trametinib + Pictilisib; first compound 0.07906 µM) | relative viability (Trametinib + Pictilisib; first compound 0.25 µM) |
| --- | --- | --- | --- | --- | --- | --- | --- | --- | --- | --- | --- | --- | --- | --- | --- | --- | --- | --- | --- | --- |
| NCI-H1915 | 0.492 | 0.521 | 0.313 | 0.262 | 0.216 | 0.728 | 0.816 | 0.894 | 0.431 | 0.954 | 0.558 | 0.575 | 0.466 | 0.368 | 0.289 | 0.963 | 0.466 | 0.317 | 0.287 | 0.24 |
| NCI-H647 | 0.188 | 0.183 | 0.152 | 0.155 | 0.141 | 0.177 | 0.124 | 0.192 | 0.128 | 0.324 | 0.634 | 0.562 | 0.642 | 0.465 | 0.196 | 0.348 | 0.301 | 0.235 | 0.206 | 0.127 |
| NCI-H322M | 0.581 | 0.556 | 0.544 | 0.417 | 0.435 | 0.812 | 0.76 | 0.798 | 0.946 | 0.929 | 0.797 | 0.691 | 0.62 | 0.557 | 0.555 | 0.522 | 0.486 | 0.35 | 0.344 | 0.336 |
| NCI-H2170 | 0.281 | 0.267 |  | 0.271 | 0.237 | 0.623 | 0.616 | 0.626 | 0.778 | 0.738 | 0.821 | 0.723 |  | 0.73 | 0.803 | 0.281 | 0.276 |  | 0.238 | 0.249 |
| BEN | 0.706 | 0.752 | 0.511 | 0.45 | 0.646 | 0.286 | 0.394 |  | 0.357 | 0.281 | 0.62 | 0.57 | 0.49 | 0.57 | 0.624 | 0.487 | 0.472 |  | 0.419 | 0.426 |
| NCI-H2009 | 1.06 | 0.794 | 0.499 | 0.368 | 0.37 | 0.997 | 1.03 | 1.05 | 1.02 | 1.09 | 0.76 | 0.634 | 0.341 | 0.354 | 0.336 | 0.502 | 0.366 | 0.148 | 0.206 | 0.208 |
| LC-2-ad | 0.271 | 0.259 | 0.294 | 0.274 | 0.282 | 1.05 | 0.885 | 1.05 | 1.22 | 1.07 | 0.648 | 0.665 | 0.663 | 0.547 | 0.472 | 0.412 | 0.444 | 0.237 | 0.216 | 0.195 |
| NCI-H1437 | 0.271 | 0.23 | 0.265 | 0.203 | 0.192 | 1.14 | 1.08 | 1.22 | 1.25 | 1.24 | 0.813 | 0.642 | 0.516 | 0.447 | 0.377 | 0.151 | 0.144 | 0.113 | 0.129 | 0.148 |
| NCI-H3122 | 0.187 | 0.183 | 0.166 | 0.149 | 0.149 | 0.0819 | 0.0768 | 0.0923 | 0.0892 | 0.0964 | 0.978 | 0.678 | 0.204 | 0.361 | 0.518 | 0.287 | 0.24 | 0.197 | 0.189 | 0.175 |
| NCI-H1734 | 0.418 | 0.383 |  | 0.387 | 0.355 | 0.212 | 0.208 |  | 0.203 | 0.866 | 0.812 | 0.802 |  | 0.747 | 0.356 | 0.439 | 0.448 |  | 0.362 | 0.299 |
| HCC-15 | 0.21 | 0.221 | 0.227 | 0.186 | 0.221 | 0.172 | 0.344 | 0.303 | 0.353 | 0.36 | 0.814 | 0.549 | 0.395 | 0.276 | 0.275 | 0.596 | 0.232 | 0.175 | 0.158 | 0.182 |
| NCI-H2405 | 0.995 | 0.947 | 0.464 |  | 0.554 | 0.809 | 0.603 | 0.629 | 0.738 | 0.74 | 0.985 | 0.853 | 0.649 |  | 0.601 | 0.298 | 0.251 | 0.257 | 0.204 | 0.236 |
| NCI-H1993 | 0.511 | 0.566 | 0.543 | 0.543 | 0.453 | 0.828 | 0.686 | 0.813 | 0.67 | 0.369 | 0.681 | 0.553 | 0.339 | 0.576 | 0.304 | 0.864 | 0.913 | 0.792 | 0.806 | 0.897 |
| NCI-H1650 | 0.388 | 0.324 | 0.314 | 0.329 | 0.216 | 0.19 | 0.183 | 0.195 | 0.203 | 0.207 | 0.502 | 0.625 | 0.572 | 0.45 | 0.288 | 0.608 | 0.61 | 0.448 | 0.364 | 0.113 |
| NCI-H460 | 0.0594 | 0.0614 | 0.0626 | 0.0649 | 0.0564 | 0.0416 | 0.0387 | 0.0352 | 0.0268 | 0.0415 | 0.621 | 0.482 | 0.376 | 0.12 | 0.0929 | 0.302 | 0.23 | 0.156 | 0.125 | 0.0758 |
| NCI-H1651 | 0.554 | 0.618 | 0.426 | 0.47 | 0.278 | 0.953 | 0.772 | 1.02 | 1.13 | 1.02 | 0.546 | 0.546 | 0.466 | 0.505 | 0.505 | 0.5 | 0.488 | 0.406 | 0.49 | 0.389 |
